These results are taken from patent US20160279187A1, “CALPAIN INHIBITORS FOR IBD AND COLORECTAL CANCER TREATMENT” (UNIVERSITY OF HAWAII, priority 2013, published 2016).

One assay has as its target cathespin L (Homo sapiens, UniProt P07711). Conditions: off-target protein; Li et al., Biochemistry 2006; cited from earlier work.
Assay [1] concerns CT-26 WT mouse colon cancer cells. Kind of assay: proliferation assay (MTS), CT-26.WT. Type of assay: cell-based. Conditions: 20 μg/ml, vs DMSO. On the procedure: (§1) Bone marrow derived macrophages (BMDM) were prepared as previously described by methods known to those skilled in the art. On day 5 of culture, 2×10^6 BMDM were seeded in 6-well plates and the following day were primed for 18 h with TNFα (20 ng/mL), followed by 1 h stimulation with E. faecalis (1 μg/mL; ATCC). Stimulation with E. faecalis was conducted in the presence of the zLLY-CH2F calpain-2 inhibitor (20 μg/mL) or DMSO as a control. Media was removed from treated BMDM, centrifuged at 300×g for 5 min and supernatent analyzed using the Cytometric Bead Array Mouse Inflammation Kit (BD Biosciences, San Jose, Calif.). Cytokine data were analyzed using Flowjo software (Ashland, Oreg.) and GraphPad Prism version 4.0 (GraphPad, La Jolla, Calif.). Cell pellets were lysed and analyzed for IκB and NFκB by Western blot as previously described (Miyazaki, T. et al. Journal of Atherosclerosis and Thrombosis 20, 228-237, 2013). […] Each day 4 wells were quantified using Celltiter MTS reagent (Promega) and the resulting signal was used to generate a proliferation curve. Calpain activity was measured using a Calpain activity assay kit (BioVision, Inc., Milpitas, Calif.) as previously described. Colons were harvested on day 4 and calpain activity measured. […]

In assay [2] the target is T1, M-Calpain activity in HT-29 cells (Homo sapiens, UniProt P17655).
T1 construct: endogenous in cells; host or cells: HT-29 human colorectal cancer cells
T1 sequence (P17655 20-700 limits assumed): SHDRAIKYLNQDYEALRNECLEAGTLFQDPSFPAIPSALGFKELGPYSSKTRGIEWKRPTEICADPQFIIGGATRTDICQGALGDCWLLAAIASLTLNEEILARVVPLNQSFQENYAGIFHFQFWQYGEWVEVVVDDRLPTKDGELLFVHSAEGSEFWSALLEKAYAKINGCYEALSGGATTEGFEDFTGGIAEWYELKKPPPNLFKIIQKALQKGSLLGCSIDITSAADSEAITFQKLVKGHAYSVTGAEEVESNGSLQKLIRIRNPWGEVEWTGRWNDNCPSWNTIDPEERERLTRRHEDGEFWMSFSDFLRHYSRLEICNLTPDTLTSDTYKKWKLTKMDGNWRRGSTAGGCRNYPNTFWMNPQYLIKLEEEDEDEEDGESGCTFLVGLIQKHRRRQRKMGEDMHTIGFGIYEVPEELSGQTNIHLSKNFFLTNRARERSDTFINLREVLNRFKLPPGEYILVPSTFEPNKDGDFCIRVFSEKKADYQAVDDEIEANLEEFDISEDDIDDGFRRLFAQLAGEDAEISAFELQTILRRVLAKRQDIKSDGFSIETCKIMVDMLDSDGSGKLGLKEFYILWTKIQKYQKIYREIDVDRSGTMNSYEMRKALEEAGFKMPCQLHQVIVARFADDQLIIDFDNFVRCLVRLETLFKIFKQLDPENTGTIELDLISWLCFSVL
T1 sequence (P04632 1-268 partner): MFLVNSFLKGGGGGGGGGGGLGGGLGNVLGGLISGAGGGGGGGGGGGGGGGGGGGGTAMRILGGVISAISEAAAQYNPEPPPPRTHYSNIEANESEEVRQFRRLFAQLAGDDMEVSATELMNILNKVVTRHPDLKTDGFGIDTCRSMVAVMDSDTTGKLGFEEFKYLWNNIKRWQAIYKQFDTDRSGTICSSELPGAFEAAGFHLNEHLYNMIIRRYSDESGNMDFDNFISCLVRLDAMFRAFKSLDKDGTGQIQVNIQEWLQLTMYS
Description: Calpain Activity Assay Kit (BioVision), HT-29. Type of assay: cell-based. Conditions: HT-29, vs DMSO, 1 hour. How it is done:
as §1

Where a SMILES comes first, the peptide text is derived from it. The star is where a group is joined. Cbz = O=C(OCc1ccccc1)*; CH2F = FC*

Chain of cathespin L (P07711 114-333): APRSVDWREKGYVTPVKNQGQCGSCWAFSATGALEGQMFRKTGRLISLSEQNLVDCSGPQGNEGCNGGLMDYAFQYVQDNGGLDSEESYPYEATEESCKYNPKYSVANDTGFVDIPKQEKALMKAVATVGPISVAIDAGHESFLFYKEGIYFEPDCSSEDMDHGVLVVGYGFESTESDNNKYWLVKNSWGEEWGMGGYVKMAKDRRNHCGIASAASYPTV

For the molecule `CC(C)C[C@H](NC(=O)OCc1ccccc1)C(=O)N[C@@H](CC(C)C)C(=O)N[C@@H](Cc1ccc(O)cc1)C(=O)CF` [zLLY-CH2F, Z-LLY-CH2F] (Cbz-Leu-Leu-Tyr-CH2F), on cathespin L, the “rate constant k2, inhibition of cathespin L” value is recorded as 680,000 M^−1s^−1. In addition, in assay [1], the proliferation result was “reduction”. Also, the M-Calpain activity result in assay [2] was “reduced”.
